For 39 molecules, GI50 results are on record in patent US20240174611A1 (Rappta Therapeutics Oy, priority 2021, published 2024).

Usually GI50 stands for the concentration giving 50% growth inhibition.

Bounds are passed on as bounds.

The test system of the first test is HCC1937 cells. In words: HCC1937 cell viability assay (MTS). It counts as cell-based. Particulars: Homo sapiens, HCC1937 cell line (footnote a), 48 hours treatment. The procedure:
HCC1937 cell line HCC1937 cells are plated in a 96 well plate format at a density of 10,000 cells per well. After incubation overnight, cells are treated with compounds 1-100 at following concentrations: 80, 40, 20, 10, 5, 2.5, 1.25 μM. Compound concentrations are prepared in RPMI via serial dilutions from a starting stock of 80 mM. 48 hours after compound treatment, cell viability is assessed using the Promega CellTiter 96 aqueous one proliferation assay (Promega G3582, MTS assay) according to manufacturer's protocol.
(§1) The cell viability data was analyzed with GraphPad Prism software. The values were log transformed and analyzed with non-linear regression (curve-fit) using log(inhibitor) vs. response—variable slope (four parameters) and constraining the bottom to equal zero. Unless otherwise indicated, the GI50 values provided in Table 35 correspond to the LNCaP cell viability assays.
In the case of `N=S(=O)(NC1(c2ccc(F)cc2)CCNC1)c1ccc(OC(F)(F)F)cc1` (stereo not drawn) [Compound 84, N-(3-(4-fluorophenyl)pyrrolidin-3-yl)-4-(trifluoromethoxy)benzenesulfonimidamide], the concentration for 50% growth inhibition (GI50) turned out to be 75.1 µM.

Another test relates to LNCaP cells. As to the kind of experiment: LNCaP cell viability assay (MTS). It counts as cell-based. The settings on record: Homo sapiens, LNCaP, 48 h, LNCaP cell line, 48 hours treatment. The procedure:
LNCaP cell line was used for the cell viability assay. LNCaP cells were plated in 96-well plates at a density of 5000 cells per well. After 24 hours of plating, the cells were treated with increasing doses of compound 1-100 ranging from 1 μM to 80 μM. Relative cell numbers were analyzed after 48 hours using 3-(4,5-dimethylthiazol-2-yl)-5-(3-carboxymethoxyphenyl)-2-(4-sulfophenyl)-2H-tetrazolium (MTS) assay (Promega) according to the manufacturer's instructions.
as §1
As to `CN=S(=O)(NC1(c2ccc(Cl)cc2)CCNC1)c1ccc(OC(F)(F)F)cc1` (stereo not drawn) [Compound 68, N-(3-(4-chlorophenyl)pyrrolidin-3-yl)-N′-methyl-4-(trifluoromethoxy)benzenesulfonimidamide], it took 27.2 µM to inhibit growth by half (GI50). Same read-out and setting: under `Cc1noc(C)c1S(=O)(=O)NCC1(NS(=O)(=O)c2ccc(OC(F)(F)F)cc2)CCCCC1` [Compound 33] stands 53 µM; under `O=S(=O)(NC1(c2ccc(Cl)cc2F)CCNCC1)c1ccc(OC(F)(F)F)cc1` [Compound 94, N-(4-(4-chloro-2-fluorophenyl)piperidin-4-yl)-4-(trifluoromethoxy)benzenesulfonamide], 15.8 µM; under `O=S(=O)(NC1(c2ccc(F)cc2)CCNC1)c1ccc(OC(F)(F)F)cc1` (stereo not drawn) [Compound 74, N-(3-(4-fluorophenyl)pyrrolidin-3-yl)-4-(trifluoromethoxy)benzenesulfonamide], 47.9 µM. `O=S(=O)(NC1CC2(CCCC2)Oc2ccccc21)c1ccc(OC(F)(F)F)cc1` (stereo not drawn) [Compound 18, N-(spiro[chromane-2,1′-cyclopentan]-4-yl)-4-(trifluoromethoxy)benzene-sulfonamide] gave a concentration for 50% growth inhibition (GI50) of 37.4 µM. On the same count and under the same terms, under `O=S(=O)(NC1(c2ncc(Cl)s2)CCNCC1)c1ccc(OC(F)(F)F)cc1` [Compound 73, N-(4-(5-chlorothiazol-2-yl)piperidin-4-yl)-4-(trifluoromethoxy)benzenesulfonamide] stands 56.4 µM; under `CCC(C(=O)N1CCC(NS(=O)(=O)c2ccc(OC(F)(F)F)cc2)CC1)c1ccccc1` (stereo not drawn) [Compound 17, N-(1-(2-phenylbutanoyl)piperidin-4-yl)-4-(trifluoromethoxy)benzene-sulfonamide], 58 µM; under `O=S(=O)(N[C@@H]1C[C@H]1c1ccc(Cl)cc1)c1ccc(OC(F)(F)F)cc1` (racemic) [Compound 42, rac N-((1R,2S)-2-(4-chlorophenyl)cyclopropyl)-4-(trifluoromethoxy)benzenesulfonamide], 67.2 µM. `Cc1cc(C2(NS(=O)(=O)c3ccc(OC(F)(F)F)c(N)c3)CCNC2)ccc1F` (stereo not drawn) [Compound 93, 3-amino-N-(3-(4-fluoro-3-methylphenyl)pyrrolidin-3-yl)-4-(trifluoromethoxy)benzenesulfonamide]: the GI50 is 65.5 µM. Same read-out and setting: under `O=S(=O)(NC1Cc2[nH]ncc2C(C(F)(F)F)C1)c1ccc(OC(F)(F)F)cc1` (stereo not drawn) [Compound 26] stands 53 µM; under `CC(C)Oc1ccc(S(=O)(=O)NC2(c3ccc(Cl)cc3)CCNCC2)cc1` [Compound 62, N-(4-(4-chlorophenyl)piperidin-4-yl)-4-isopropoxybenzenesulfonamide], 11.3 µM. As for `CC(=O)Nc1ccc(S(=O)(=O)N2CCC(NS(=O)(=O)c3ccc(OC(F)(F)F)cc3)CC2)cc1` [Compound 1], the GI50 was found to be 38.1 µM. `O=S(=O)(NC1(c2ccc(Cl)cc2)CCNCC1)C12CC(C(F)(F)F)(C1)C2` [Compound 98, N-(4-(4-chlorophenyl)piperidin-4-yl)-3-(trifluoromethyl)bicyclo[1.1.1]pentane-1-sulfonamide] showed a GI50 of 46.6 µM.

In the case of `O=C1CCC(NS(=O)(=O)c2ccc(OC(F)(F)F)cc2)c2ccc(OC(F)F)cc21` (stereo not drawn) [Compound 25, N-(6-(difluoromethoxy)-4-oxo-1,2,3,4-tetrahydronaphthalen-1-yl)-4-(trifluoromethoxy)benzene-sulfonamide], the GI50 was found to be 30 µM. The same measure, in the same setting: under `O=S(=O)(NC1CCC2CN(Cc3ccccc3)CC21)c1ccc(OC(F)(F)F)cc1` (stereo not drawn) [Compound 22] stands 70 µM; under `O=S(=O)(NC1(c2ccc(Cl)cc2)CCNC1)c1ccc(OC(F)(F)F)cc1` (stereo not drawn) [Compound 39, N-(3-(4-chlorophenyl)pyrrolidin-3-yl)-4-(trifluoromethoxy)benzene-sulfonamide], 14 µM; under `O=S(=O)(NC1(c2ccc(Cl)c(Cl)c2)CCNC1)c1ccc(OC(F)(F)F)cc1` (stereo not drawn) [Compound 41, N-(3-(3,4-dichlorophenyl)pyrrolidin-3-yl)-4-(trifluoromethoxy)benzene-sulfonamide], 10.4 µM. In turn, `COC(=O)C12CC3(C)CC(C)(CC(NS(=O)(=O)c4ccc(OC(F)(F)F)cc4)(C3)C1)C2` [Compound 21] came in with a GI50 of 30 µM.

Regarding `O=S(=O)(NC1(c2ccccc2)CNC1)c1ccc(OC(F)(F)F)cc1` [Compound 46, N-(3-phenylazetidin-3-yl)-4-(trifluoromethoxy)benzenesulfonamide], the 50% growth inhibitory concentration (GI50) is no less than 80 µM.

`CC(C)(C)OC(=O)N1CCC([C@@H]2C[C@H]2NS(=O)(=O)c2ccc(OC(F)(F)F)cc2)CC1` (racemic) [Compound 24]: growth was halved (GI50) at 16 µM.

`CC1CC(NS(=O)(=O)c2ccc(OC(F)(F)F)cc2)CCC1(C)C` (stereo not drawn) [Compound 8, 4-(trifluoromethoxy)-N-(3,4,4-trimethylcyclohexyl)benzene-sulfonamide] yielded a GI50 of 73.3 µM. In turn, `O=S(=O)(NC1CCCN(c2ccc(Cl)c(Cl)c2)C1)c1ccc(OC(F)(F)F)cc1` (stereo not drawn) [Compound 5, N-(1-(3,4-dichlorophenyl)piperidin-3-yl)-4-(trifluoromethoxy)benzene-sulfonamide] yielded a GI50 of 52.8 µM. The same measure, in the same setting: next, `O=S(=O)(NC1(c2ccccc2)CC2CCC(C1)N2)c1ccc(OC(F)(F)F)cc1` (stereo not drawn) [Compound 86, N-(3-phenyl-8-azabicyclo[3.2.1]octan-3-yl)-4-(trifluoromethoxy)benzenesulfonamide]: 23.7 µM; `CCOC(=O)C1(NS(=O)(=O)c2ccc(OC(F)(F)F)cc2)CCc2ccccc21` (stereo not drawn) [Compound 20]: 60 µM; `COc1cccc(C2(NS(=O)(=O)c3ccc(OC(F)(F)F)cc3)CCCC2)c1` [Compound 15]: 49.2 µM. The same measure, in the same setting: next, `O=S(=O)(N[C@@]1(c2ccc(Cl)cc2)CNC[C@@H]1F)c1ccc(OC(F)(F)F)cc1` (racemic) [Compound 79, N-((3S,4S)-3-(4-chlorophenyl)-4-fluoropyrrolidin-3-yl)-4-(trifluoromethoxy)benzenesulfonamide]: 55.8 µM; `N=S(=O)(NC1(c2ccc(Cl)cc2)CCNC1)c1ccc(OC(F)(F)F)cc1` (stereo not drawn) [Compound 63, N-(3-(4-chlorophenyl)pyrrolidin-3-yl)-4-(trifluoromethoxy)benzenesulfonimidamide]: 38.4 µM; `O=S(=O)(NC1(c2ccc(Cl)c(Cl)c2)CNC1)c1ccc(OC(F)(F)F)cc1` [Compound 48, N-(3-(3,4-dichlorophenyl)azetidin-3-yl)-4-(trifluoromethoxy)benzenesulfonamide]: 18.2 µM. Same read-out and setting: next, `CN1CCC(NS(=O)(=O)c2ccc(OC(F)(F)F)cc2)(c2ccc(Cl)cc2)C1` (stereo not drawn) [Compound 69, N-(3-(4-chlorophenyl)-1-methylpyrrolidin-3-yl)-4-(trifluoromethoxy)benzenesulfonamide]: 19.5 µM; `CC(C)Oc1ccc(S(=O)(=O)NC2(c3ccc(Cl)cc3)CCNCC2)cn1` [Compound 67, N-(4-(4-chlorophenyl)piperidin-4-yl)-6-isopropoxypyridine-3-sulfonamide]: 18.2 µM. For the molecule `O=S(=O)(NC1(c2ncc(Cl)cc2F)CCNCC1)c1ccc(OC(F)(F)F)cc1` [Compound 95, N-(4-(5-chloro-3-fluoropyridin-2-yl)piperidin-4-yl)-4-(trifluoromethoxy)benzenesulfonamide], it took 45.8 µM to inhibit growth by half (GI50). Same read-out and setting: under `O=S(=O)(NC1CCCc2cc(Cl)ccc21)c1ccc(OC(F)(F)F)cc1` (stereo not drawn) [Compound 12, N-(6-chloro-1,2,3,4-tetrahydronaphthalen-1-yl)-4-(trifluoromethoxy)benzene-sulfonamide] stands 49 µM; under `O=S(=O)(NC1(c2ccc(Cl)c(F)c2)CCNC1)c1ccc(OC(F)(F)F)cc1` (stereo not drawn) [Compound 52, N-(3-(4-chloro-3-fluorophenyl)pyrrolidin-3-yl)-4-(trifluoromethoxy)benzenesulfonamide], 23.4 µM; under `O=S(=O)(NC1(c2ccccc2)CCNC1)c1ccc(OC(F)(F)F)cc1` (stereo not drawn) [Compound 36, N-(3-phenylpyrrolidin-3-yl)-4-(trifluoromethoxy)benzene-sulfonamide], 41.9 µM. On to `COc1ccc(C2(NS(=O)(=O)c3ccc(OC(F)(F)F)cc3)CCOCC2)cc1F` [Compound 29, N-(4-(3-fluoro-4-methoxyphenyl)tetrahydro-2H-pyran-4-yl)-4-(trifluoromethoxy)benzene-sulfonamide], for which it took 39 µM to inhibit growth by half (GI50). Regarding `O=S(=O)(NC1CCOc2c(F)ccc(F)c21)c1ccc(OC(F)(F)F)cc1` (stereo not drawn) [Compound 10, N-(5,8-difluorochroman-4-yl)-4-(trifluoromethoxy)benzene-sulfonamide], the 50% growth inhibitory concentration (GI50) worked out at 67.5 µM. With `O=S(=O)(NC1(c2ccc(F)cc2)CCNCC1)c1ccc(OC(F)(F)F)cc1` [Compound 59, N-(4-(4-fluorophenyl)piperidin-4-yl)-4-(trifluoromethoxy)benzenesulfonamide], it took 18.1 µM to inhibit growth by half (GI50). On the same count and under the same terms, next, `O=S(=O)(NC1(c2ccc(F)c(F)c2)CCNCC1)c1ccc(OC(F)(F)F)cc1` [Compound 82, N-(4-(3,4-difluorophenyl)piperidin-4-yl)-4-(trifluoromethoxy)benzenesulfonamide]: 14.4 µM.
